Source: ChEMBL document CHEMBL1201862, “PubChem BioAssay data set” (2004)
pIC50: −log10 of the molar value. Active and inactive are the calls of the source.

How the values were obtained:
[1] = target: Signal transducer and activator of transcription 3 (Homo sapiens, UniProt P40763); test: STAT3 blockade with qPCR and toxicity readouts – cell-based, STAT1 panel, cytotoxicity, late-stage follow-up, panel member STAT3 Inhibition (AID 2078)
[2] = target: Signal transducer and activator of transcription 1-alpha/beta (Homo sapiens, UniProt P42224); test: STAT3 blockade with qPCR and toxicity readouts – cell-based, STAT1 panel, cytotoxicity, late-stage follow-up, panel member STAT1 Inhibition (AID 2078)
[3] = target: T1, COUP transcription factor 2 (Homo sapiens, UniProt P24468); test: Luminescence-based cell-based high throughput dose response assay to identify inhibitors of COUP-TFII (NR2F2).; assay type: functional;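 note: HEK293 cells transiently cotransfected with COUP-TFII expression vector and reporter; luciferase reporter luminescence driven by COUP-TFII from the pX2-168 reporter plasmid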
T1 sequence (P24468 whole entry): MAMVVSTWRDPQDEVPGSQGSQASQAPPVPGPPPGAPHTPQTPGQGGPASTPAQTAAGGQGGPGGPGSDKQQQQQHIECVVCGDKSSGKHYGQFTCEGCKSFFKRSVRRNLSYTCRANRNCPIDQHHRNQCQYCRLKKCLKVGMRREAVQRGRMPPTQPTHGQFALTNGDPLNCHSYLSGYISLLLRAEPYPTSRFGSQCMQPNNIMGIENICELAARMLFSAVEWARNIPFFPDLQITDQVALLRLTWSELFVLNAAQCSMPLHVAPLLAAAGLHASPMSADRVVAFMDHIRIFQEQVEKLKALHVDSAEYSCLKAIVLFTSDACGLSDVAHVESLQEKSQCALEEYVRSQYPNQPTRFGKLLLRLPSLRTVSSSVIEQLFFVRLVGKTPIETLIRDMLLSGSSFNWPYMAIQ

Mu-type opioid receptor [4] = target: T2, Mu-type opioid receptor (Homo sapiens, UniProt P35372); test: HTS Image-Based Screen for Agonists of the MOR Receptor. [Related pubchem assays (depositor defined):AID1777, AID1785, AID1786, AID2133]; assay type: functional
Beta-galactosidase = Beta-galactosidase (Escherichia coli, UniProt Q8VNN2); assay type: functional
[5] = target: T3, Kappa-type opioid receptor (Homo sapiens, UniProt P41145); assay type: functional
[6] = target: T4, Delta-type opioid receptor (Homo sapiens, UniProt P41143); test: HTS Image-Based Screen for Agonists of the DOR Receptor. [Related pubchem assays (depositor defined):AID1777, AID1786, AID2133]; assay type: functional
Paired box protein Pax-8 = Paired box protein Pax-8 (Homo sapiens, UniProt Q06710); test: PAX8 transcriptional activity inhibition in RMG-I – RMG-I cells, luciferase, cherry-pick, dose response (AID 687027); assay type: functional, cell-based;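 note: luciferase reporter driven by Pax8 target thyroperoxidase promoter measured by SteadyGlo luminescence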
[7] = target: T4, Delta-type opioid receptor; test: HTS Image-Based Screen for Antagonists of the DOR Receptor. [Related pubchem assays (depositor defined):AID1777, AID1785, AID1786, AID2133]; assay type: functional
[8] = target: T5, Ubiquitin-conjugating enzyme E2 N (Homo sapiens, UniProt P61088); assay type: functional;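 note: Dose-response confirmation in a TR-FRET assay detecting UBC13-driven polyubiquitin chain formation, inhibition measured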
T5 sequence (P61088 whole entry): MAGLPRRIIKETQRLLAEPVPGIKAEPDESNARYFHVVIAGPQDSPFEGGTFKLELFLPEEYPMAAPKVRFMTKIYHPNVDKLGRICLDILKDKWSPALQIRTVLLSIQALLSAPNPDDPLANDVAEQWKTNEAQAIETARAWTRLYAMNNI

[9] = target: T3, Kappa-type opioid receptor; assay type: functional; remark: listed apart in the source
[10] = target: T6, Tyrosine-protein phosphatase non-receptor type 22 (Homo sapiens, UniProt Q9Y2R2); assay type: functional
[11] = target: T7, Tyrosine-protein phosphatase non-receptor type 7 (Homo sapiens, UniProt P35236); assay type: functional
T7 sequence (P35236 whole entry): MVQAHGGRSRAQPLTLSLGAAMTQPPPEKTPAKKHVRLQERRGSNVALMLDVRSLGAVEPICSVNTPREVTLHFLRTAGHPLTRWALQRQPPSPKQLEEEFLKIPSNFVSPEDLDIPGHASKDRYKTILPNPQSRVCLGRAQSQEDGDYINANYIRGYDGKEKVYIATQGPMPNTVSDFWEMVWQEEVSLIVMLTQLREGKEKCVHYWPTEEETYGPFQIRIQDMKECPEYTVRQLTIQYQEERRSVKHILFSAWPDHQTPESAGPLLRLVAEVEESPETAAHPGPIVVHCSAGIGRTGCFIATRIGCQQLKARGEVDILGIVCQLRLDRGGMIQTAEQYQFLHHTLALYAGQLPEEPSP

[12] = target: T6, Tyrosine-protein phosphatase non-receptor type 22; assay type: functional; remark: listed apart in the source
[13] = target: Lysine-specific demethylase 4A (Homo sapiens, UniProt O75164); test: inhibition of JMJD2A H3K9me3 demethylation – biochemical, DELFIA europium, cherry-picked samples, selectivity assay for GASC-1 inhibitor project, dose response (AID 488840)
HEK293 [14] = test: inhibition of NOD1-driven NF-kB reporter – cell-based, luminescence, uHTS, primary screen (AID 1578); assay type: functional; details: Homo sapiens
[15] = Trypanosoma cruzi growth suppression in host cells – NIH3T3 host cells, beta-gal luminescence, confirmation (AID 2044); assay type: functional, cell-based;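 note: intracellular parasites grown in NIH/3T3 mouse fibroblasts as host cells; luminescent beta-galactosidase reporter signal from transgenic T. cruzi replicating inside host cells; inhibitors lower the luminescence signal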
HEK293 [16] = test: cells; details: Homo sapiens
Tumor necrosis factor = Tumor necrosis factor (Homo sapiens, UniProt P01375); test: analog potency on TNFa NF-kB signaling – cell-based, revised, SAR follow-up (AID 2337); assay type: functional
HEK293 [17] = test: NOD2 signaling inhibitors in MDP-stimulated cells, cell-based, uHTS, luminescence (AID 2001); assay type: functional; details: Homo sapiens
[18] = NIH3T3 cell viability loss – ATP luminescence, mouse fibroblasts, counter-screen, dose response (AID 2010); assay type: functional, cell-based;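 note: cells exposed to compound for about 90 hours before reading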
[19] = target: Nucleotide-binding oligomerization domain-containing protein 2 (Homo sapiens, UniProt Q9HC29); test: PubChem AID 2334; assay type: functional
HEK293 [20] = test: cells; assay type: functional, cell-based; details: Homo sapiens
[21] = target: Nucleotide-binding oligomerization domain-containing protein 1 (Homo sapiens, UniProt Q9Y239); test: blockers of NOD1 pathway activity – revised, SAR follow-up (AID 2333); assay type: functional
HEK293 [22] = test: cells; assay type: functional, cell-based; details: Homo sapiens; remark: listed apart in the source
[23] = target: T8, G-protein coupled receptor 35 (Homo sapiens, UniProt Q9HC97); test: SAR Analysis for the identification of Selective Antagonists of ERK1/2 Activity in GPR35-Overexpressing U2OS Cells. [Related pubchem assays: 2079, 2058 ]; assay type: functional, cell-based
[24] = target: T8, G-protein coupled receptor 35; test: inhibition of zaprinast-stimulated GPR35 beta-arrestin translocation – imaging, U2OS, beta-arrestin-GFP, zaprinast agonist, primary screen (AID 2058); assay type: functional;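 note: antagonist potency meaning inhibition of agonist-induced arrestin redistribution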
[25] = target: G-protein coupled receptor 55 (Homo sapiens, UniProt Q9Y2T6); test: blockers of GPR55 signalling, imaged – imaging, image-based, counter-screen for GPR35 antagonist project, SAR follow-up (AID 2397); assay type: functional
[26] = target: T3, Kappa-type opioid receptor; test: kappa opioid receptor activation by imaging – image-based, set 3, SAR follow-up (AID 488833); assay type: functional
Mu-type opioid receptor [27] = target: T2, Mu-type opioid receptor; test: SAR Analysis of Agonists of the MOR Receptor using an Image-Based Assay - Set 3. [Related pubchem assays (depositor defined):AID1777, AID1785, AID1786, AID1966, AID2133, AID2136, AID2284, AID2285, AID2352]; assay type: functional
[28] = target: T3, Kappa-type opioid receptor; test: SAR analysis of small molecule agonists of the kappa opioid receptor via a luminescent beta-arrestin assay - Set 3. [Related pubchem assays (depositor defined):AID1777, AID1785, AID1786, AID1966, AID2133, AID2136, AID2284, AID2500]; assay type: functional
[29] = target: T4, Delta-type opioid receptor; test: SAR Analysis of Agonists of the DOR Receptor using an Image-Based Assay - Set 3. [Related pubchem assays (depositor defined):AID1777, AID1786]; assay type: functional
Streptokinase A = target: T9, Streptokinase A (Streptococcus pyogenes serotype M1, UniProt P10520); test: viability-normalized secreted streptokinase activity reduction – plasminogen activation absorbance, OD405, dose response (AID 1914); assay type: functional, Streptococcus pyogenes M1 GAS;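 note: secreted streptokinase activity via plasminogen activation per viability signal from cell pellet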
T9 sequence (P10520 whole entry): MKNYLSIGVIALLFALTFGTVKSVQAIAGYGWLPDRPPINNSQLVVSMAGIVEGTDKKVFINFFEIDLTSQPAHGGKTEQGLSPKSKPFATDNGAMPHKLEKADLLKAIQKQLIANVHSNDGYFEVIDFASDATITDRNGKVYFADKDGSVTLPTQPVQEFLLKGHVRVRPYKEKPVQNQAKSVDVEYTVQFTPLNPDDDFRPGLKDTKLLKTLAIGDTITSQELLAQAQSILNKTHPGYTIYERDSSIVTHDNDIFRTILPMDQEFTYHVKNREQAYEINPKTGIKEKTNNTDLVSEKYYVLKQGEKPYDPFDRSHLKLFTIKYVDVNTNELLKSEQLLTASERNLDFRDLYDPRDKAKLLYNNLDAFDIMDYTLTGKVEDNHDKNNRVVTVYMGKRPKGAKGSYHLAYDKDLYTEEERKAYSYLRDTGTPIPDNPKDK

[30] = target: Heat shock protein HSP 90-alpha (Homo sapiens, UniProt P07900); assay type: functional, organism-based
[31] = PhoP promoter GFP reporter reduction in Typhimurium – purified and synthesized compounds, set 2, PhoP regulon inhibitor project, dose response (AID 2831); assay type: functional
Streptococcus = test: GAS UMAA2166 growth inhibition – luminescence, BacTiterGlo, counter-screen for streptokinase expression inhibitor project, dose response (AID 1915); assay type: functional, organism-based;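 note: potency for reduction of bacterial viability or growth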
[32] = tested on: Streptococcus sp. 'group A'; test: Streptococcus pyogenes SK(-)GAS viability under kanamycin – luminescence, BacTiterGlo, confirmation, counter-screen for streptokinase expression inhibitor project, dose response (AID 1900); assay type: functional, organism-based

T3 sequence (P41145 whole entry): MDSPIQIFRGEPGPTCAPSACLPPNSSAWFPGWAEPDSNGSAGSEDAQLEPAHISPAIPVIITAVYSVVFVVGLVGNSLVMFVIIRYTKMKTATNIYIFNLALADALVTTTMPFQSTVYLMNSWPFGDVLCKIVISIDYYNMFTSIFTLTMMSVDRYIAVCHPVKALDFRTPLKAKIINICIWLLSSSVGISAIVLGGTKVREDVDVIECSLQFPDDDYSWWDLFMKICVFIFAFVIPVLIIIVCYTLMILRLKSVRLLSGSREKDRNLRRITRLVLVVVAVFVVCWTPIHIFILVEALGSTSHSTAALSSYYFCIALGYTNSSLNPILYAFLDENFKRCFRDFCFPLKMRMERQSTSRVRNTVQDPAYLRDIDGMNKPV
T4 sequence (P41143 whole entry): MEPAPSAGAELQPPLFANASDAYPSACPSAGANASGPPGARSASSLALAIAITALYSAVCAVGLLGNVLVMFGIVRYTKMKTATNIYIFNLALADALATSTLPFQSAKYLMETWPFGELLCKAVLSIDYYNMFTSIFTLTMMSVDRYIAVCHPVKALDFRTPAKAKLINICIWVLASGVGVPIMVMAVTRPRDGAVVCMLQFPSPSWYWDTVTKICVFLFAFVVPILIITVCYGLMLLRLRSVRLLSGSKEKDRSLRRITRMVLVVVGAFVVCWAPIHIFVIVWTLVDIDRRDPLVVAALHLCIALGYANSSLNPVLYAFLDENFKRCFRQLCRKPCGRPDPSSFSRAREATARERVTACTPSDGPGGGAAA
T8 sequence (Q9HC97 whole entry): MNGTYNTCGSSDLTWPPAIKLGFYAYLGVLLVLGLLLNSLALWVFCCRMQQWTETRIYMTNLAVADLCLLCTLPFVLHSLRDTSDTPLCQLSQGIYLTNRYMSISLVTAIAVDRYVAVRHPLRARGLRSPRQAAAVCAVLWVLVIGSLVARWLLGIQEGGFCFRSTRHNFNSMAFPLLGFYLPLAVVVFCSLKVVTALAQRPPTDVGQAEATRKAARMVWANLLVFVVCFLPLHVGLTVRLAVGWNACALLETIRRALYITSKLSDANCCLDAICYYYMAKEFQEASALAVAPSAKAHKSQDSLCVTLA
T2 sequence (P35372 whole entry): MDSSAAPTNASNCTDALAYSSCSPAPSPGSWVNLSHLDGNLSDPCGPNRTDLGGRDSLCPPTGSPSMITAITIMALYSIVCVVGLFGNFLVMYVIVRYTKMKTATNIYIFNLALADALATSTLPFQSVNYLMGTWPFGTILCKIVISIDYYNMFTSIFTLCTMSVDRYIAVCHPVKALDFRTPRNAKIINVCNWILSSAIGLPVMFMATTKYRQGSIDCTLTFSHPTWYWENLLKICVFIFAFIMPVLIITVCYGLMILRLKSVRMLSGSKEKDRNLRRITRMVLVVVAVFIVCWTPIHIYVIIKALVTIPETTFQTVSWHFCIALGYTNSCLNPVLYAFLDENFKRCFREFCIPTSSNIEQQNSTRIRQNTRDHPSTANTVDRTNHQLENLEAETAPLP
T6 sequence (Q9Y2R2 whole entry): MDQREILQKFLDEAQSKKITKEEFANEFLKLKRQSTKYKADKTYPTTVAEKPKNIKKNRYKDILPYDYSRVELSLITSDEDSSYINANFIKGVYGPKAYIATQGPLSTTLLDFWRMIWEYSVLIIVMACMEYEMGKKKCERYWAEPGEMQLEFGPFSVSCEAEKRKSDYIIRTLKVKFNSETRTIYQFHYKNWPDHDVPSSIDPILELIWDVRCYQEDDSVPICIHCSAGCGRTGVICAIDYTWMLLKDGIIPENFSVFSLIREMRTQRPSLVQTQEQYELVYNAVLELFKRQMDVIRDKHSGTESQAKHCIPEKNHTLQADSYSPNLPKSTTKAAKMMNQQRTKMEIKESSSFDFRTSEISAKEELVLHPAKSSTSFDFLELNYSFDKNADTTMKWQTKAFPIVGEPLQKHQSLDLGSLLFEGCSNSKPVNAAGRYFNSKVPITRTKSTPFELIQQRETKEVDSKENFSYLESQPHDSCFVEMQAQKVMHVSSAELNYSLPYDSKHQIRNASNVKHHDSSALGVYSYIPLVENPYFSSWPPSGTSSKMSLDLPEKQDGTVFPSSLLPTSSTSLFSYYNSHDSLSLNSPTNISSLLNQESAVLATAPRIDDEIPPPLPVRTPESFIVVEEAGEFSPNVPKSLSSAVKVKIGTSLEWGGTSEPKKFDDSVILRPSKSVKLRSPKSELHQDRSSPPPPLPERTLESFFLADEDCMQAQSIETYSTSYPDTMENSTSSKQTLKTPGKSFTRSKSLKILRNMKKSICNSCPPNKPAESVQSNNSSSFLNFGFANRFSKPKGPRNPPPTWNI
Sequence of Nucleotide-binding oligomerization domain-containing protein 1 (Q9Y239 whole entry, the tested form may be a part): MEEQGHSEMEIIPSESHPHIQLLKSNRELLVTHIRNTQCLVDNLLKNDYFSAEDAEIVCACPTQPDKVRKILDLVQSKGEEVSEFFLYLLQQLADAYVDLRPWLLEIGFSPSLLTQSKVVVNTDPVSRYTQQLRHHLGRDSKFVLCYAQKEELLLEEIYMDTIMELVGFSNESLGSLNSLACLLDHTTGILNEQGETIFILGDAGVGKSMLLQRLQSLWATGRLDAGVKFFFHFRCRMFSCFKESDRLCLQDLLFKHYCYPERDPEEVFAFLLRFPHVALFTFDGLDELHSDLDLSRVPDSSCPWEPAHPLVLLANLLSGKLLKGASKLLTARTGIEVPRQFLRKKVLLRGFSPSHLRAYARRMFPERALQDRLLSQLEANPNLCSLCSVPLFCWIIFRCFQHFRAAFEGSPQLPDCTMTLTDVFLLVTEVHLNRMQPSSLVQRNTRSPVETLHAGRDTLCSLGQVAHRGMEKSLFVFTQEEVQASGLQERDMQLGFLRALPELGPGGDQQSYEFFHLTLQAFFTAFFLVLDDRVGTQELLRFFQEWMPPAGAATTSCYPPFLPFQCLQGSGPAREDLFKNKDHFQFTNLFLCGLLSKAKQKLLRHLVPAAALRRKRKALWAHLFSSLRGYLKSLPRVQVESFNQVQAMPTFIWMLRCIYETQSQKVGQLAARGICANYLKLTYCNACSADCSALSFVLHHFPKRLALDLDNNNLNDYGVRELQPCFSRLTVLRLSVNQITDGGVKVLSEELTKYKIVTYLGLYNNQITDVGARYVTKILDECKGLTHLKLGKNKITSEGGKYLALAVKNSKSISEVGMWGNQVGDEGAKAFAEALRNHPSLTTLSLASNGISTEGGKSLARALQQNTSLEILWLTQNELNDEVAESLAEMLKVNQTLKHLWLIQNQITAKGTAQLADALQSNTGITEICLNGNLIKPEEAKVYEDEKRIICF
Sequence of Lysine-specific demethylase 4A (O75164 whole entry): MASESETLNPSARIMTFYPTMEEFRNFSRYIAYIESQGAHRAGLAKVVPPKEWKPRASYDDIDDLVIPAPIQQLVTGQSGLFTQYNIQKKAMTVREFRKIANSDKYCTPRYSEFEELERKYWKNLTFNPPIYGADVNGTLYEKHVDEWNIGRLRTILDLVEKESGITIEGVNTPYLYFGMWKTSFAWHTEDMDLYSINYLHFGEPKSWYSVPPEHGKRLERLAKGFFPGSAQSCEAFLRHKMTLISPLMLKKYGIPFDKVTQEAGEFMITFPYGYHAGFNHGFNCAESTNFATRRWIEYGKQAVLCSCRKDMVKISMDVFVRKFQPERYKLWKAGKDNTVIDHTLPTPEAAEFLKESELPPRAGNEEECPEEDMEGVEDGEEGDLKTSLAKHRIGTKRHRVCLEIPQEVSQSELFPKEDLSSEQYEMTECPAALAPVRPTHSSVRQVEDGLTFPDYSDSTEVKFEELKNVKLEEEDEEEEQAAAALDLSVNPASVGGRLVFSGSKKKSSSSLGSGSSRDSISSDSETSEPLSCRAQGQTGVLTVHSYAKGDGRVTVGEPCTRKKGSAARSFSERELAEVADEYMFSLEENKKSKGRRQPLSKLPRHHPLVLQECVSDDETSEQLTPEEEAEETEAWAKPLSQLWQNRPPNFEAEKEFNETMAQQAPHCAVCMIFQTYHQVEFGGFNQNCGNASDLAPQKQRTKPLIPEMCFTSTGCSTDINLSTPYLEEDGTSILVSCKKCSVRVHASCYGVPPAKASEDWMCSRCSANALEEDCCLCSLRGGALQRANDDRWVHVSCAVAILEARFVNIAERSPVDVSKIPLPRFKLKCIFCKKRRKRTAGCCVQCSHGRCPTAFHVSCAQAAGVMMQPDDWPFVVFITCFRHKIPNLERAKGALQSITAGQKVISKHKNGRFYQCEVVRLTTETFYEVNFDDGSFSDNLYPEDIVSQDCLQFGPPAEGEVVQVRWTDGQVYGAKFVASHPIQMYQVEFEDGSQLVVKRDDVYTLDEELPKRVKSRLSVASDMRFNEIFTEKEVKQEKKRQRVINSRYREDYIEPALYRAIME
Sequence of Paired box protein Pax-8 (Q06710 whole entry): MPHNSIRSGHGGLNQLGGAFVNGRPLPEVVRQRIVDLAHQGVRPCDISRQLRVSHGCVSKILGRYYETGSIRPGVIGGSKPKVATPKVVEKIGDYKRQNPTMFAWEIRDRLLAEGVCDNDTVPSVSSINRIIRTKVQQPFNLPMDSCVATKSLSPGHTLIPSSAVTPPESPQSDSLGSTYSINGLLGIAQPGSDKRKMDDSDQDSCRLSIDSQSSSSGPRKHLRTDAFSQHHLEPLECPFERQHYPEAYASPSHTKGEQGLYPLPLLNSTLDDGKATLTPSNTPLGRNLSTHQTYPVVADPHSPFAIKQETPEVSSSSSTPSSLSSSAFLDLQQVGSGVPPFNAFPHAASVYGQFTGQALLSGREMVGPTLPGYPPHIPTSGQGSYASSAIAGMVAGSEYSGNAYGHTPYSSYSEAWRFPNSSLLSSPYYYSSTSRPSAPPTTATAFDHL
Sequence of Tumor necrosis factor (P01375 whole entry): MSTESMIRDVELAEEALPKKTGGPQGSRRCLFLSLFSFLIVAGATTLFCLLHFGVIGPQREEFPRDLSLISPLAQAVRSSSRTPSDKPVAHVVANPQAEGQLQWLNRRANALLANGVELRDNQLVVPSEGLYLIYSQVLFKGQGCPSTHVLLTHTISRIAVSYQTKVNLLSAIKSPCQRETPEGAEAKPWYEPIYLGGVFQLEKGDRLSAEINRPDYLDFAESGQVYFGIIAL

**Q.** Which IC50 [1] does the source give for `O=C(c1ccccc1)C1CCN(c2ncnc3sccc23)CC1` here?
**A.** 0.688 µM (active)

**Q.** And the IC50 [2]?
**A.** > 55.7 µM (inactive)

**Q.** What about the IC50 [3] of the same molecule?
**A.** 5.71 µM (active)

**Q.** Which EC50 (Mu-type opioid receptor [4]) does the source give for `Cc1ccc(C(=O)N[C@@H](C)CN2C3=NC[C@@H](Cc4ccccc4)N3C[C@H]2Cc2ccc(O)cc2)cc1Br` here?
**A.** > 32 µM (inactive)

**Q.** What about the EC50 (Beta-galactosidase) of the same molecule?
**A.** > 31.5 µM (inactive)

**Q.** What about the IC50 [5] of the same molecule?
**A.** 3.16 µM (active)

**Q.** What about the EC50 [6] of the same molecule?
**A.** 31.2 µM (inactive)

**Q.** What about the AC50 (Paired box protein Pax-8) of the same molecule?
**A.** 24.8 µM (active)

**Q.** What about the IC50 [7] of the same molecule?
**A.** > 32 µM (inactive)

**Q.** And the IC50 [8]?
**A.** > 20 µM (inactive)

**Q.** And the pIC50 [9]?
**A.** 5.84

**Q.** Which IC50 [10] does the source give for `COc1ccc(N2CCN(CCOc3ccc4c(C)cc(=O)oc4c3)CC2)cc1` here?
**A.** > 79.4 µM (inactive)

**Q.** What about the IC50 [11] of the same molecule?
**A.** > 79.4 µM (inactive)

**Q.** And the IC50 [12]?
**A.** > 79.4 µM (inactive)

**Q.** For `O=C(NN=C1CCCCCCCCCCC1)c1cccc(S(=O)(=O)N2CCOCC2)c1`, which AC50 [13] is on record?
**A.** 18.1 µM (active)

**Q.** Which results are given for `COc1ccc(C(=O)NC(=S)N(C)C2CCCCC2)cc1Br`?
**A.** EC50 (HEK293 [14]): > 20 µM (inactive); EC50 [15]: 3.6 µM (active); IC50 (HEK293 [16]): > 20 µM (inactive); IC50 (Tumor necrosis factor): > 20 µM (inactive); IC50 (HEK293 [17]): 6.75 µM (inactive); EC50 [18]: 12.4 µM (active); IC50 [19]: > 20 µM (inactive); IC50 (HEK293 [20]): > 20 µM (inactive); IC50 [21]: > 20 µM (inactive); IC50 (HEK293 [22]): > 20 µM (inactive)

**Q.** With `CC(C)(C)c1ccc(OCCC(=O)NCCc2ccc(S(N)(=O)=O)cc2)cc1` as the molecule, how does the IC50 [23] read?
**A.** 9.95 µM (active)

**Q.** And the IC50 [24]?
**A.** 0.929 µM (active)

**Q.** What about the IC50 [25] of the same molecule?
**A.** > 32 µM (inactive)

**Q.** Which EC50 [26] does the source give for `COC(=O)c1ccc(CSc2nnc(-c3ccccn3)n2Cc2cccs2)cc1` here?
**A.** 5.99 µM (active)

**Q.** What about the EC50 (Mu-type opioid receptor [27]) of the same molecule?
**A.** > 32 µM (inactive)

**Q.** And the EC50 [28]?
**A.** 6.14 µM (active)

**Q.** And the EC50 [29]?
**A.** > 32 µM (inactive)

**Q.** Which EC50 (Streptokinase A) does the source give for `CSc1nc2cc(Cl)c(Oc3cccc(Cl)c3Cl)cc2[nH]1` [TRICLABENDAZOLE] here?
**A.** 4.69 µM (active)

**Q.** What about the AC50 [30] of the same molecule?
**A.** 4.25 µM (active)

**Q.** And the IC50 [31]?
**A.** > 125 µM (active)

**Q.** What about the EC50 (Streptococcus) of the same molecule?
**A.** 6.22 µM (active)

**Q.** And the EC50 [32]?
**A.** 2.26 µM (active)
